Measured values taken from US9526915B2, “Methods for regulating cell mitosis by inhibiting serine/threonine phosphatase” (priority 2008, dated 2016).
“And” between values parts separate entries of the source, which are not always exact repeats. Equal values may be shown once.

How the values were obtained:
U373 cells [1] = experiment: Western blots of U373 cells; type: cell-based, human; conditions: U373, 2 nM, 24 hours
Method: (§1) 5×10^6 U87MG cells were inoculated s.c. into each flank of 20 SCID mice. When the xenografts were 0.5+/−0.1 cm (day 0), 5 animals each received i.p. vehicle alone days 1-12 (50% DMSO/H20); compound 102 alone at 1.5 mg/kg days 1-3, 5-7, & 9-11; TMZ alone at 80 mg/kg days 4, 8, 12; or both drugs at the same doses and schedules. If xenografts reached 1800 mm^3, animals were sacrificed. […] B, Survival curve combining the data from the study shown in FIG. 12A, with a second identical study involving a total of 10 animals with two xenografts each. Disease-free survival was defined as no recurrence of either xenografts. […] As in 12A, except that xenografts of SH-SY5Y cells were implanted in one flank only and animals were treated with one additional cycle of drugs, i.e., compound 102 on days 13-15, TMZ, on day 16, and compound 102 plus TMZ on the same schedules. […] E, Western blots of U87 cells in culture 24 hours after exposure to compound 102 at 2.5 uM, TMZ at 25 uM or DOX at 2 uM, and compound 102 plus TMZ or DOX. F, Western blots of U373 cells 24 hours after exposure to compound 102 at 2.5 uM, doxorubicin at 2 uM, and both drugs. G, Western blots of U373 cells 24 hours after exposure to TMZ at 25 uM, okadaic acid at 2 nM, and both drugs.

[2] = tested on: human glioblastoma cell line, U373; experiment: U373 growth in culture for 7 days, Compound 100 with standard cytotoxic drugs; type: cell-based; conditions: Compound 100 2.5 uM, cisplatin 0.1 uM, doxorubicin 0.01 uM, taxol 0.3 nM
Method: Cells were exposed to vehicle alone (control); Compound 100 at 2.5 uM; cisplatin at 0.1 uM; doxorubicin at 0.01 uM; or taxol at 0.3 nM alone or to the combination of Compound 100 plus each of the standard agents at the same concentrations. […] The expected percent inhibition at 7 days is the product of the inhibition by each agent alone.
Cells were exposed to vehicle alone (control); compound 100 at 2.5 μM, cisplatin at 0.1 μM; doxorubicin at 0.01 μM; or taxol at 0.3 nM alone or to the combination of compound 100 plus each of the standard agents at the same concentrations. […] The expected percent inhibition from a combination of drugs is calculated by multiplying the actual percent inhibition by each drug alone and comparing that product to the actual percent inhibition caused by the combination of the two drugs (Valeriote, 1975). The expected percent inhibition at 7 days is the product of the inhibition by each agent alone.

[3] = tested on: DAOY medulloblastoma cells; experiment: DAOY medulloblastoma s.c. xenografts in SCID mice; type: in vivo; conditions: treatment from day 6, by day 23
Method: DAOY medulloblastoma cells were implanted subcutaneously into the flanks of SCID mice. On day 6, mice were divided into 3 groups, one group receiving Compound 100, one group receiving Compound 102, and one group receiving vehicle alone. The subcutaneous tumor masses were measured on day 6, day 13, day 18, and on day 23 when all animals were sacrificed. […] In this model DAOY cells, when untreated, reached their maximum growth about 2 weeks after implantation with slow regression thereafterwards.

[4] = tested on: U87 glioblastoma multiforme cells; experiment: U87 s.c. xenografts in SCID mice, Compound 100; type: in vivo; conditions: treatment from day 7, measured to day 26
Method: SCID mice were implanted with 5×10^6 U87 cells subcutaneously. On day 7 treatment was begun on half of the animals. The size of the subcutaneous mass of tumor cells was measured weekly until the animals were sacrificed on day 26.

TCTP = TCTP in U87 xenografts by 2-dimensional gel electrophoresis; type: in vivo, SCID mice; conditions: 1.5 mg/kg IP, 4 hours
Method: SCID mice were implanted with 5×10^6 U87 cells subcutaneously. On day 26, the mice were given 1.5 mg/kg Compound 100 by IP injection. The animals were sacrificed after 4 hours treatment and the subcutaneous mass of tumor cells were removed for 2-dimensional gel electrophoretic analysis. […] In the left panel, TCTP subsequently identified by LC-MS-MS is circled and shown in an enlargement of the gel.
SCID mice were implanted with 5 million U87 cells subcutaneously. On day 26, the mice were administered 1.5 mg/kg of compound 100 by intraperitoneal injection. The animals were sacrificed after 4 hours of treatment and the subcutaneous mass of tumor cells were removed for 2-dimensional gel electrophoretic analysis.

[5] = tested on: DAOY medulloblastoma cells; experiment: Western blot of DAOY cell lysates for TCTP, p-Plk, total Plk; type: cell-based, human
Method: DAOY cells in culture were exposed to Compound 100 for 4 hours and for 24 hours, and stained for TCTP, p-Plk and total Plk on western blots.
DAOY cells in culture were exposed to compound 100 for 4 hours and for 24 hours, and stained for TCTP, p-plk (phosphorylated plk), and total plk on western blots.

DAOY cells = experiment: Immunofluorescence of alpha-tubulin and Plk-1 in DAOY cells; type: cell-based, human; conditions: 5 μM, 4 hours
Method: DAOY cells growing in tissue culture were exposed to 5 μM Compound 100 for 4 hours. The cells were rinsed, fixed, and stained for immunofluorescent recognition of alpha-tubulin and Plk-1. Control cells at the left show in the upper left panel diffuse staining for alpha-tubulin distributed throughout the cytoplasm. […] The lower right panel, stained for Plk-1, alpha-tubulin, and DNA show the almost pure extra nuclear location of homogeneously distributed alpha-tubulin. The right panel consists of 4 elements showing the effects of exposure to Compound 100.

human cancer cell lines = experiment: Cancer cell proliferation in cell culture; type: cell-based
U87MG xenografts = experiment: U87MG s.c. xenografts in SCID mice, compound 102 and TMZ; type: in vivo; conditions: same doses and schedules
Method: as §1
To determine the impact of altering DNA-damage defense mechanisms by inhibiting PP2A on the efficacy of cytotoxic chemotherapy, the effects of compound 102 combined with TMZ, a non-specific DNA-methylating drug, routinely used for the palliative treatment of GBM patients (Prados et al, 2008), were studied. SCID mice bearing s.c. xenografts of either the GBM line U87MG or the neuroblastoma line SH-SY5Y were treated with vehicle alone, compound 102 alone, TMZ alone, or both drugs at the same doses and schedules as when given alone.

U87MG cells = experiment: Cellular and molecular changes in U87MG cells (Western blots, IFS); type: cell-based, human; conditions: U87MG, 24 hours; compound 102 2.5 uM, TMZ 25 uM, DOX 2 uM
Method: D, Western blots of U87 lysates: TCTP, pPlk (Tre-210), total Plk, and β-actin. E, IFS of TCTP in U87 cells, F, Western blots p53 (ser-15), pMDM2 (ser-166), and β-actin and G, IFS of p53 (ser-15).
as §1
TCTP is an abundant, highly conserved, multifunctional protein that binds to and stabilizes microtubules before and after mitosis and also exerts potent anti-apoptotic activity (Bommer and Thiele, 2004; Yarm, 2002; Susini et al, 2008) (FIG. 11E).
[…] Akt-1 activation, however, may be anti- or proapoptotic depending on the context of cell signaling (Andrabi et al, 2007).
The effects of compound 102, TMZ, doxorubicin (DOX), a widely used anti-cancer drug that disrupts DNA replication, compound 102 plus TMZ, and compound 102 plus DOX on the amount of pAkt, p53 and MDM2 in U87MG, a cell line with wild-type p53, and in U373, a cell line with mutant p53 (Short et al, 2007) were assessed by Western blots.

U373 cells [6] = experiment: Cell cycle distribution of U373 cells by FACS; type: cell-based, human; conditions: U373, 48 hours
Method: Cells in unsynchronized logarithmic growth were exposed to vehicle or drug and adherent cells and cells in the media were collected. Harvested cells were fixed with 70% cold ethanol for 20 min at −20 degrees, washed with PBS, and stained with 10 ug/ml of PI and 1 ug/ml RNAse in TBS for 30 minutes and analyzed by FACS. A, Flow cytometry profiles of U87 cells after exposures to DMSO only, compound 102 only, 5 uM; TMZ only, 25 uM; compound 102 with TMZ combination, doxorubicin only, 2.0 uM and compound 102 with doxorubicin combination. B, Flow cytometry profiles of U373 cells. Exposures as in A, and C, Schema of proposed mechanisms of compound 102 enhancement of cancer chemotherapy.
We analyzed cell cycle patterns of U87MG and U373 cells 48 hours after exposure to TMZ or DOX alone and in combination with compound 102.

C=C1[C@@H](O)[C@@H]2O[C@]3(CC[C@H](/C=C/[C@@H](C)[C@@H]4CC(C)=C[C@@]5(O[C@H](C[C@@](C)(O)C(=O)O)CC[C@H]5O)O4)O3)CC[C@H]2O[C@@H]1[C@@H](O)C[C@H](C)[C@H]1O[C@@]2(CCCCO2)CC[C@H]1C [Okadaic acid, okadaic acid, reference compound]
effects on pAkt-1 and on mutant p53 (U373 cells [1]): mimicked the effects of compound 102

CN1CCN(C(=O)C2C(C(=O)O)[C@H]3CC[C@@H]2O3)CC1 (some centres unmarked) [Compound 100]
inhibition at 7 days by agent alone [2]: 71%
DAOY subcutaneous tumor mass [3]: marked regression
U87 subcutaneous xenograft growth [4]: Inhibition
TCTP concentration in U87 xenografts (TCTP): diminution in TCTP
Plk-1 phosphorylation (western blot) ([5]; 4 hours): increase
TCTP (western blot) ([5]; 4 hours): decrease
TCTP (western blot) ([5]; 24 hours): no TCTP is detectable
alpha-tubulin distribution (DAOY cells): marked distortion of the homogeneous distribution
inhibition of human cancer cell lines (human cancer cell lines; breast, colon, stomach, liver, ovary, prostate, brain, lung, leukemias, lymphomas): dose dependent inhibition
effect of higher doses on tumor cells (human cancer cell lines; higher doses): mitotic catastrophe and cell death
growth of tumor cells at non-inhibitory doses (human cancer cell lines; submicromolar to very low micromolar concentrations): slight but clear-cut stimulation

Cn1nnc2c(C(N)=O)ncn2c1=O [TMZ, temozolomide, reference compound]
time of sacrifice (xenografts reached 1800 mm^3) (U87MG xenografts): 7-9 week

COc1cccc2c1C(=O)c1c(O)c3c(c(O)c1C2=O)C[C@@](O)(C(=O)CO)C[C@@H]3O[C@H]1C[C@H](N)[C@H](O)[C@H](C)O1 [doxorubicin, reference compound]
MDM2 (U87MG cells): little effect
p53 (U87MG cells): increased
pAkt-1 (U87MG cells): decreased
G1 phase cells (U373 cells [6]; compound 102 5 uM, TMZ 25 uM, doxorubicin 2.0 uM): reduced
G2/M phase cells (U373 cells [6]; same concentrations): reduced
S phase cells (U373 cells [6]; same concentrations): greatly increased

N.N.[Cl][Pt][Cl] [cisplatin]
inhibition at 7 days by agent alone [2]: 93.5% and 93%
